In assay [1] the target is phosphorylated BTK in Ramos cells (Homo sapiens (Human), UniProt Q06187). Briefly: Determination of phosphorylated BTK in Ramos cells (BTK phospho-Y223 HTRF). As to conditions: anti-human IgM + hydrogen peroxide stimulation. Format: cell-based. In short, it runs like this: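 Ramos cells starved 2 h in 1% FBS, then treated 1 h with compound (0.00018–3.0 μM, 0.3% DMSO). They were then stimulated 10 min at 37° C. with anti-human IgM (10 μg/mL) plus H2O2 (3.3 mM). Lysates read by BTK phospho-Y223 HTRF (665/615 nm ratio); IC50 fitted from inhibition normalized to stimulated and unstimulated controls.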
On the technique in general: TR-FRET usually uses a lanthanide donor and a delayed reading to cut background.

Assay [2] has as its system B cell activation in rat whole blood. Briefly: Determination of B cell activity in whole blood of rats (anti-rat IgD induced B cell activation, flow cytometry). Format: cell-based. As to conditions: anti-rat immunoglobulin D 10 μg/mL, 18 hours, inhibition of B cell activation. As for the experimental part: Example 4 Determination of B Cell Activity in Whole Blood of Rats
1. Reagents and Materials
Peripheral whole blood of female Wistar rats;
In the determination of the compound activity, the collected peripheral whole blood of rat was added to a 96 well plate at 80 μL/well and cultured in a 5% CO2, 37° C. cell incubator. After half an hour, the test compound was diluted with PBS in a 3-fold gradient to the corresponding concentrations, and then the diluted test compound with different concentrations was added to the culture system of rat whole blood at 10 μL/well (the final concentration of the test compound was 1.0, 0.33, 0.11, 0.037, 0.012, 0.0041, 0.0014, and 0.0005 μM, the final concentration of DMSO was 0.3%, double replicate wells), or the control solution (0.3% DMSO, 6 replicate wells) was added to the corresponding well at 10 μL/well, which were incubated in the cell incubator for one hour. Then 10 μL/well of anti-rat immunoglobulin D diluted in PBS (the final concentration was 10 μg/mL) was add to the treating wells of the test compound and control wells for anti-rat immunoglobulin D, or 10 μL/well of PBS was added to the negative control wells, which were mixed well to continue the culture in a 5% CO2, 37° C. cell incubator, and incubated for 18 hours.
On the second day, the 96-well plates were taken out and the flow cytometry antibody mixture (the final concentration of anti-rat B220PE antibody was 1 μg/mL and the final concentration of anti-rat CD86 FITC antibody was 1 μg/mL) diluted with PBS was added to each well of plate, which were incubated for 30 minutes in the dark, and then 50 μL of blood from each well was pipetted to the freshly prepared 500 μL of lysis buffer to lyse red blood cells. The plates were shaken for 20 minutes, centrifuged to remove the supernatant, then washed, fixed, and detected on a flow cytometer.
The B cell activation in the sample was determined by flow dyeing method.
The average value of the proportion of activated B cells in the wells with anti-rat immunoglobulin D but without the test compound was used as the control treating well for anti-rat immunoglobulin D, and the average value of the proportion of activated B cells in the wells without immunoglobulin D stimulation and without the test compound was used as the negative control treating well. According to the B cell activation ratio in each well, the inhibition ratio (%) of each concentration was calculated, and then the IC50 value was obtained by using the 205 model in XL-Fit 5.3 software (ID Business Solutions Limited).
The inhibition ratio is calculated as follows: inhibition ratio (%)=100%−{(treating well for the test compound−negative control treating well)/(control treating well for anti-rat immunoglobulin D−negative control treating well)}×100%, wherein,
Treating well for the test compound: represents the B cell activation ratio in rat whole blood treated with anti-rat immunoglobulin D and the test compound.
Control treating well for anti-rat immunoglobulin D: represents the B cell activation ratio in rat whole blood treated with anti-rat immunoglobulin D but without the test compound.
Negative control treating well: represents the B cell activation ratio in rat whole blood without the test compound and without immunoglobulin stimulation.
Through the above-mentioned test, the compound of the present invention has a potency to inhibit B cell activation in rat whole blood.
In general terms: A flow cytometer gives signals particle by particle.

Sequence of phosphorylated BTK in Ramos cells (Q06187 whole entry): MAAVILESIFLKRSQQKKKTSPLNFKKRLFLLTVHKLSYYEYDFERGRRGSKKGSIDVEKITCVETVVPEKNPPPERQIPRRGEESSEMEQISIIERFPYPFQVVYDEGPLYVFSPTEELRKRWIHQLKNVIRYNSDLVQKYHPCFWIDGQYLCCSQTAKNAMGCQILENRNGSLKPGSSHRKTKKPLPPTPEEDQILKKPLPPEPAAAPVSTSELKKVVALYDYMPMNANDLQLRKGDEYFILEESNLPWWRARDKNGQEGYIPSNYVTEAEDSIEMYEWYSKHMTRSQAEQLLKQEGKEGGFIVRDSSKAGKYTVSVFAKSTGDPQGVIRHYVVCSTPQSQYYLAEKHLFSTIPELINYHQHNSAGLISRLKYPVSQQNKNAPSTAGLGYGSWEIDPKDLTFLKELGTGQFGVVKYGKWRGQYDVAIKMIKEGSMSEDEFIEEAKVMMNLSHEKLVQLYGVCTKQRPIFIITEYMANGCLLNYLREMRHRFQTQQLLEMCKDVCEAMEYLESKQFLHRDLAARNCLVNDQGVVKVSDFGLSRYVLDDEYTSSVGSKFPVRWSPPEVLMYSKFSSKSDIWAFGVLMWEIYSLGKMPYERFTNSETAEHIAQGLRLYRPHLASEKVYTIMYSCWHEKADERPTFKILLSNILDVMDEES

In general, IC50 refers to the concentration that gives 50% inhibition. For the compound `C[C@H]1CN(C2COC2)CCN1c1ccc(Nc2cc(-c3ccnc(-n4ccn5c6c(cc5c4=O)CC(C)(C)C6)c3CO)nn(C)c2=O)nc1` [Compound 22], the IC50 in assay [1] worked out at 0.018 µM; in assay [2], 0.034 µM.

`C[C@H]1CN(C2COC2)CCN1c1cnc(Nc2cc(-c3ccnc(-n4ccn5c6c(cc5c4=O)CC(C)(C)C6)c3CO)cn(C)c2=O)cn1` [Compound 43]: the IC50 is 0.002 µM in assay [1] and 0.052 µM in assay [2].

With `C[C@@H]1CN(c2ccc(Nc3cc(-c4ccnc(-n5ccn6c7c(cc6c5=O)CC(C)(C)C7)c4CO)cn(C)c3=O)nc2)[C@@H](C)CN1C1COC1` [Compound 27], the figures for the IC50 in assay [1] and in assay [2] were 0.001 µM and 0.005 µM, respectively.

On to `C[C@H]1CN(C2COC2)CCN1c1ccc(Nc2cc(-c3ccnc(-n4ccn5c6c(cc5c4=O)CC(C)(C)C6)c3CO)cn3c(F)cnc23)nc1` [Compound 23], for which the IC50 is 0.03 µM in assay [1] and 0.277 µM in assay [2].

Take `C[C@@H]1CN(c2ccc(Nc3cc(-c4ccnc(-n5ccn6c7c(cc6c5=O)CCC7)c4CO)cn(C)c3=O)nc2)[C@@H](C)CN1C1COC1` [Compound 2, 2-(5-((5-((2S,5R)-2,5-dimethyl-4-(oxetan-3-yl)piperazin-1-yl)pyridin-2-yl)amino)-3′-(hydroxymethyl)-1-methyl-6-oxo-1,6-dihydro-[3,4′-bispyridin]-2′-yl)-7,8-dihydro-2H-cyclopenta[4,5]pyrrolo[1,2-a]pyrazin-1(6H)-one]: the IC50 in assay [1] was determined as 0.01 µM; in assay [2] it was 0.054 µM.

Turning to `C[C@H]1CN(C2COC2)CCN1c1ccc(Nc2cc(-c3ccnc(-n4ncn5c6c(cc5c4=O)CC(C)(C)C6)c3CO)cn(C)c2=O)nc1` [Compound 79], the IC50 in assay [1] turned out to be 0.002 µM; in assay [2] it was 0.006 µM.

Regarding `C[C@H]1CN(C2COC2)CCN1c1ccc(Nc2cc(-c3ccnc(-n4ccn5c6c(cc5c4=O)CC(C)(C)C6)c3CO)cn3ncnc23)nc1` [Compound 21], the IC50 in assay [1] is 0.015 µM; in assay [2] it was 0.024 µM.

As for `COCCN(C)c1ccc(Nc2cc(-c3ccnc(-n4ccn5c6c(cc5c4=O)CC(C)(C)C6)c3CO)cn(C)c2=O)nc1` [Compound 50], the IC50 in assay [1] was found to be 0.002 µM; in assay [2], 0.084 µM.

Take `C[C@H]1CN(C2COC2)CCN1c1cnc(Nc2cc(-c3ccnc(-n4ccn5c6c(cc5c4=O)CC(C)(C)C6)c3CO)cn(C)c2=O)nc1` [Compound 44]: the IC50 in assay [1] was found to be 0.018 µM.

With `C[C@H]1CN(C2COC2)CCN1c1ccc(Nc2cc(-c3ccnc(-n4ccn5c6c(cc5c4=O)CCC6)c3CO)cn(C)c2=O)nc1` [Compound 64], the IC50 worked out at 0.01 µM in assay [1] and 0.052 µM in assay [2].

As to `CN1CCN(C(=O)c2ccc(Nc3cc(-c4ccnc(-n5ccn6c7c(cc6c5=O)CC(C)(C)C7)c4CO)cn(C)c3=O)nc2)CC1` [Compound 48], the IC50 is 0.006 µM in assay [1] and 0.026 µM in assay [2].

For `Cn1cc(-c2ccnc(-n3ccn4c5c(cc4c3=O)CC(C)(C)C5)c2CO)cc(Nc2cn(CCF)nn2)c1=O` [Compound 31], the results for the IC50 in assay [1] and in assay [2] were 0.006 µM and 0.093 µM, respectively.

`C[C@@H]1CN(c2ccc(Nc3cc(-c4ccnc(-n5ccn6c(c(F)c7ccccc76)c5=O)c4CO)cn(C)c3=O)nc2)[C@@H](C)CN1C1COC1` [Compound 59]: the IC50 came out at 0.001 µM in assay [1] and 0.019 µM in assay [2].

For the compound `Cn1cc(-c2ccnc(-n3ccn4c5c(cc4c3=O)CC(C)(C)C5)c2CO)cc(Nc2ccc(N3CCN(C4COC4)CC3)cn2)c1=O` [Compound 9], the IC50 in assay [1] came to 0.004 µM.

In the case of `Cn1cc(Nc2cc(-c3ccnc(-n4ccn5c6c(cc5c4=O)CC(C)(C)C6)c3CO)cn(C)c2=O)nn1` [Compound 28], the IC50 turned out to be 0.002 µM in assay [1] and 0.078 µM in assay [2].

Take `C[C@H]1CN(C2COC2)CCN1c1ccc(Nc2cc(-c3ccnc(-n4ccn5c6c(cc5c4=O)CCC(F)(F)C6)c3CO)cn(C)c2=O)nc1` [Compound 56]: the IC50 in assay [1] stood at 0.024 µM.

As for `CC1CCc2cc3c(=O)n(-c4nccc(-c5cc(Nc6ccc(N7CCN(C8COC8)C[C@@H]7C)cn6)c(=O)n(C)c5)c4CO)ccn3c2C1` (mixture of isomers) [Compound 78], the values for the IC50 in assay [1] and in assay [2] were 0.003 µM and 0.041 µM, respectively.

On to `C[C@H]1CN(C2COC2)CCN1c1ccc(Nc2cc(-c3ccnc(-n4ccn5c(cc6ccccc65)c4=O)c3CO)cn(C)c2=O)nc1` [Compound 74], for which, in assay [1], the IC50 was 0.011 µM.

In the case of `C[C@H]1CN(C2COC2)CCN1c1ccc(Nc2cc(-c3ccnc(-n4cnn5c6c(cc5c4=O)CC(C)(C)C6)c3CO)cn(C)c2=O)nc1` [Compound 63], the IC50 in assay [1] was 0.005 µM; in assay [2], 0.044 µM.

In the case of `C[C@H]1CN(C2COC2)CCN1c1ccc(Nc2cc(-c3ccnc(-n4ccn5c6c(cc5c4=O)CC(C)(C)C6)c3CO)cn(C)c2=O)nc1` [Compound 19], the results for the 50% inhibitory concentration (IC50) in assay [1] and in assay [2] were 0.004 µM and 0.003 µM, respectively.

As for `C[C@H]1CN(C)CCN1c1ccc(Nc2cc(-c3ccnc(-n4ccn5c6c(cc5c4=O)CC(C)(C)C6)c3CO)cn(C)c2=O)nc1` [Compound 26], the IC50 in assay [1] stood at 0.007 µM; in assay [2], 0.019 µM.

For `CCn1cc(Nc2cc(-c3ccnc(-n4ccn5c6c(cc5c4=O)CC(C)(C)C6)c3CO)cn3ncnc23)nn1` [Compound 71], the IC50 came to 0.006 µM in assay [1] and 0.092 µM in assay [2].

In the case of `C[C@H]1CN(C2COC2)CCN1c1ccc(Nc2cc(-c3ccnc(-n4ccn5c6c(cc5c4=O)CC(C)(C)C6)c3CO)n[nH]c2=O)nc1` [Compound 49], the IC50 is 0.001 µM in assay [1] and 0.01 µM in assay [2].

Regarding `C[C@H]1CN(C2COC2)CCN1c1ccc(Nc2cc(-c3ccnc(-n4ccn5c(c(F)c6cc(F)ccc65)c4=O)c3CO)cn(C)c2=O)nc1` [Compound 60], the IC50 was found to be 0.003 µM in assay [1] and 0.034 µM in assay [2].

Turning to `COCCN1CCN(c2ccc(Nc3cc(-c4ccnc(-n5ccn6c7c(cc6c5=O)CC(C)(C)C7)c4CO)cn(C)c3=O)nc2)[C@@H](C)C1` [Compound 8], the IC50 was 0.002 µM in assay [1] and 0.017 µM in assay [2].

With `C[C@H]1CN(C2COC2)CCN1c1ccc(Nc2cc(-c3ccnc(-n4ccn5c(cc6cc(F)ccc65)c4=O)c3CO)cn(C)c2=O)nc1` [Compound 75], the results for the IC50 in assay [1] and in assay [2] were 0.007 µM and 0.085 µM, respectively.

As to `C[C@H]1CN(C2COC2)CCN1c1ccc(Nc2cc(-c3ccnc(-n4ccn5c6c(cc5c4=O)CC(F)(F)CC6)c3CO)cn(C)c2=O)nc1` [Compound 58], the IC50 in assay [1] is 0.004 µM; in assay [2] it was 0.006 µM.

`C[C@H]1CN(C2COC2)CCN1c1ccc(Nc2cc(-c3ccnc(-n4ccn5c(c(F)c6ccccc65)c4=O)c3CO)cn(C)c2=O)nc1` [Compound 57]: the IC50 in assay [1] is 0.003 µM; in assay [2], 0.021 µM.

Values taken from patent publication US11478474B2, “2-(3′-(hydroxymethyl)-1-methyl-5-((5-(2-methyl-4-(oxetan-3-yl)piperazin-1-yl)pyridin-2-yl)amino)-6-oxo-1,6-dihydro-[3,4′-bipyridin]-2′-yl)-7,7-dimethyl-7,8-dihydro-2H-cyclopenta[4,5]pyrrolo[1,2-a]pyrazin-1(6H)-one as a BTK inhibitor” (HUTCHISON MEDIPHARMA LIMITED, priority 2020, dated 2022).
